From US20120207734A1 (priority 2011, published 2012)

Test system: DU-145 cells
Type: cell-based, human

With `C=C1[C@@H](C)[C@H]2[C@H](Cc3ccccc3)NC(=O)[C@]23[C@H](OC(C)=O)/C=C/[C@@](C)(O)C(=O)[C@@H](C)C/C=C/[C@H]3[C@@H]1O` [Cytochalasin-D] the “Effect on cell migration” value was “did not migrate”, the “Relative Wound Density at 24 Hours, Mean” value was 3.3 ± 0.2 and the “Relative Wound Density at 24 Hours, Percent Relative to Media” value was 4%.
